Assay results taken from the supplement of paper PMC10733146.

Legend:
Experiment in all cases: viability relative to DMSO control (fraction); higher = less drug effect (more viable cells)
Conditions in all cases: 48 h
[1] = test system: primary AML patient cells (S056)
Method in brief: (§1)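 Cells were incubated for 48 h at 37 °C and 5% CO2 in RPMI-1640 with penicillin/streptomycin, L-glutamine and human serum, at 4 × 10^4 cells per well in 384-well plates with compounds pre-plated at five concentrations, one well each. These were primary mononuclear tumour cells, fresh or cryopreserved, Ficoll-isolated from blood or bone marrow or obtained from processed lymph node. Viability values are CellTiter-Glo luminescence relative to the median of 16 inner DMSO wells.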

[2] = test system: primary AML patient cells (S072)
Method in brief: as §1

[3] = test system: primary AML patient cells (S071)
Method in brief: as §1

[4] = test system: primary FL patient cells (S087)
Method in brief: as §1

[5] = test system: primary MCL patient cells (S068)
Method in brief: as §1

[6] = test system: primary B-PLL patient cells (S016)
Method in brief: as §1

[7] = test system: primary MCL patient cells (S053)
Method in brief: as §1

[8] = test system: primary FL patient cells (S022)
Method in brief: as §1

[9] = test system: primary MCL patient cells (S063)
Method in brief: as §1

[10] = test system: primary MCL patient cells (S041)
Method in brief: as §1

[11] = test system: primary AML patient cells (S009)
Method in brief: as §1

[12] = test system: primary CLL patient cells (S031)
Method in brief: as §1

[13] = test system: primary ALL patient cells (S048)
Method in brief: as §1

[14] = test system: primary AML patient cells (S055)
Method in brief: as §1

[15] = test system: primary T-PLL patient cells (S008)
Method in brief: as §1

[16] = test system: primary DLBCL patient cells (S082)
Method in brief: as §1

[17] = test system: primary AML patient cells (S060)
Method in brief: as §1

[18] = test system: primary ALL patient cells (S088)
Method in brief: as §1

[19] = test system: primary AML patient cells (S079)
Method in brief: as §1

[20] = test system: primary BL patient cells (S005)
Method in brief: as §1

In the case of `CC[C@H](Nc1ncnc2[nH]cnc12)c1nc2cccc(F)c2c(=O)n1-c1ccccc1` [Idelalisib], the viability ([1]; 0.0032 µM) is reported as 1.02, the viability ([1]; 0.016 µM) is reported as 1.02 and the viability ([1]; 0.08 µM) is reported as 0.954. The viability ([1]; 0.4 µM) was 0.896, the viability ([1]; 2 µM) was 0.911 and the viability ([2]; 0.0032 µM) was 0.995. The viability ([2]; 0.016 µM) was 0.883, the viability ([2]; 0.08 µM) was 0.922 and the viability ([2]; 0.4 µM) was 0.82. For the same compound, the viability ([2]; 2 µM) was 0.803, the viability ([3]; 0.0032 µM) was 0.959 and the viability ([3]; 0.016 µM) was 0.868. It also gave a viability ([3]; 0.08 µM) of 0.812, a viability ([3]; 0.4 µM) of 0.733 and a viability ([3]; 2 µM) of 0.662. For the same compound, the viability ([4]; 0.0032 µM) was 0.984, the viability ([4]; 0.016 µM) was 0.923 and the viability ([4]; 0.08 µM) was 0.848. It also gave a viability ([4]; 0.4 µM) of 0.78, a viability ([4]; 2 µM) of 0.793 and a viability ([5]; 0.0032 µM) of 0.888. It also gave a viability ([5]; 0.016 µM) of 0.755, a viability ([5]; 0.08 µM) of 0.663 and a viability ([5]; 0.4 µM) of 0.612. It also gave a viability ([5]; 2 µM) of 0.558, a viability ([6]; 0.0032 µM) of 1.08 and a viability ([6]; 0.016 µM) of 0.889. It also gave a viability ([6]; 0.08 µM) of 0.905, a viability ([6]; 0.4 µM) of 0.794 and a viability ([6]; 2 µM) of 0.751. It also gave a viability ([7]; 0.0032 µM) of 1.02, a viability ([7]; 0.016 µM) of 0.96 and a viability ([7]; 0.08 µM) of 0.946. For the same compound, the viability ([7]; 0.4 µM) was 0.877, the viability ([7]; 2 µM) was 0.815 and the viability ([8]; 0.0032 µM) was 1.05. It also gave a viability ([8]; 0.016 µM) of 1.09, a viability ([8]; 0.08 µM) of 0.955 and a viability ([8]; 0.4 µM) of 0.939. The viability ([8]; 2 µM) was 0.929, the viability ([9]; 0.0032 µM) was 0.918 and the viability ([9]; 0.016 µM) was 0.792. For the same compound, the viability ([9]; 0.08 µM) was 0.73, the viability ([9]; 0.4 µM) was 0.693 and the viability ([9]; 2 µM) was 0.595. For the same compound, the viability ([10]; 0.0032 µM) was 0.949, the viability ([10]; 0.016 µM) was 0.908 and the viability ([10]; 0.08 µM) was 0.886. For the same compound, the viability ([10]; 0.4 µM) was 0.893, the viability ([10]; 2 µM) was 0.887 and the viability ([11]; 0.0032 µM) was 0.985. For the same compound, the viability ([11]; 0.016 µM) was 1.02, the viability ([11]; 0.08 µM) was 1.04 and the viability ([11]; 0.4 µM) was 0.998. It also gave a viability ([11]; 2 µM) of 0.905, a viability ([12]; 0.0032 µM) of 0.974 and a viability ([12]; 0.016 µM) of 0.861. It also gave a viability ([12]; 0.08 µM) of 0.731, a viability ([12]; 0.4 µM) of 0.654 and a viability ([12]; 2 µM) of 0.569. The viability ([13]; 0.0032 µM) was 1.01, the viability ([13]; 0.016 µM) was 0.934 and the viability ([13]; 0.08 µM) was 0.861. It also gave a viability ([13]; 0.4 µM) of 0.751, a viability ([13]; 2 µM) of 0.752 and a viability ([14]; 0.0032 µM) of 1. The viability ([14]; 0.016 µM) was 0.961, the viability ([14]; 0.08 µM) was 0.909 and the viability ([14]; 0.4 µM) was 0.972. The viability ([14]; 2 µM) was 0.875, the viability ([15]; 0.0032 µM) was 1 and the viability ([15]; 0.016 µM) was 0.97. The viability ([15]; 0.08 µM) was 1.03, the viability ([15]; 0.4 µM) was 0.99 and the viability ([15]; 2 µM) was 0.992. It also gave a viability ([16]; 0.0032 µM) of 1.05, a viability ([16]; 0.016 µM) of 0.893 and a viability ([16]; 0.08 µM) of 0.812. The viability ([16]; 0.4 µM) was 0.768, the viability ([16]; 2 µM) was 0.668 and the viability ([17]; 0.0032 µM) was 1.04. For the same compound, the viability ([17]; 0.016 µM) was 1.02, the viability ([17]; 0.08 µM) was 1.03 and the viability ([17]; 0.4 µM) was 1.08. The viability ([17]; 2 µM) was 1.03, the viability ([18]; 0.0032 µM) was 1.02 and the viability ([18]; 0.016 µM) was 0.948. For the same compound, the viability ([18]; 0.08 µM) was 0.895, the viability ([18]; 0.4 µM) was 0.914 and the viability ([18]; 2 µM) was 0.831. For the same compound, the viability ([19]; 0.0032 µM) was 1.01, the viability ([19]; 0.016 µM) was 0.954 and the viability ([19]; 0.08 µM) was 0.906. It also gave a viability ([19]; 0.4 µM) of 0.844, a viability ([19]; 2 µM) of 0.793 and a viability ([20]; 0.0032 µM) of 1. The viability ([20]; 0.016 µM) was 0.95, the viability ([20]; 0.08 µM) was 0.982 and the viability ([20]; 0.4 µM) was 1.01. The viability ([20]; 2 µM) was 0.86.
